The assay concerns the target T1, protein tyrosine phosphatase 1B (PTP1B) (Homo sapiens, UniProt P18031).
T1 sequence (P18031 1-435): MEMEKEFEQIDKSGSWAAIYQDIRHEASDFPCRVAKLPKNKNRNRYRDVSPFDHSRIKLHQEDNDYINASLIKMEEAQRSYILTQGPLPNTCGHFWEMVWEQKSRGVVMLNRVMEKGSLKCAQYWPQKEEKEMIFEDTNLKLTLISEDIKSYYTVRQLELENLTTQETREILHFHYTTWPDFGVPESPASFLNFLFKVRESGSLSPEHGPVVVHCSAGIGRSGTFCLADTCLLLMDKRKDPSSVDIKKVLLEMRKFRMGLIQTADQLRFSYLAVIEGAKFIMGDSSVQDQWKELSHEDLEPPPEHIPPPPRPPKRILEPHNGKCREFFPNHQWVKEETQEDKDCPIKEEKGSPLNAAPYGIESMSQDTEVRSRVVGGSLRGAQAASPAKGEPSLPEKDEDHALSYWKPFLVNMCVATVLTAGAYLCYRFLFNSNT
In words: Assay of PTP1B activity (in vitro enzyme inhibition). The note with it: in vitro PTP1B enzymatic activity; oleanolic acid as positive control; read-out: IC50 ± SD, inhibitory activity against PTP1B. The format is biochemical. As for the experimental part: The bioassay procedure was the same as that reported previously. The result of PTP1B inhibition was expressed as IC50, which was calculated with Prism 4 software (Graphpad, San Diego, CA).
`CC(C)=CCC/C(C)=C/Cc1c(O)cc2c(c1O)C(=O)[C@H](O)[C@@H](c1ccc(O)cc1)O2` [Compound 8, bonanniol A]: the IC50 was 15.2 ± 2.8 µM.

Turning to `CC(C)=CCC/C(C)=C/Cc1c(O)cc2oc(-c3ccc(O)cc3)c(O)c(=O)c2c1O` [Compound 7, macarangin], the IC50 stood at 22.7 ± 4.6 µM.

For the molecule `CC1(C)C=Cc2c(O)c(C(=O)/C=C/c3ccc(O)cc3)c3c(c2O1)C=CC(C)(C)O3` [Compound 6, laxichalcone], the IC50 amounted to 20.7 ± 5.3 µM.

For `COc1ccc(/C=C/C(=O)c2c(O)c(C)c(O)c3c2OC(C)(C)C=C3)cc1` [Compound 4, (2E)-1-(5,7-dihydroxy-2,2,6-trimethyl-2H-benzopyran-8-yl)-3-(4-methoxyphenyl)-2-propen-1-one], the half-maximal inhibitory concentration (IC50) worked out at 48.8 ± 5.5 µM.

In the case of `CC(C)=CCC/C(C)=C/Cc1c(O)cc2c(c1O)C(=O)C[C@@H](c1ccc(O)cc1)O2` [Compound 9, bonannione A], the IC50 stood at 14 ± 1.2 µM.

`CC1(C)C=Cc2c(O)cc(O)c(C(=O)/C=C/c3ccccc3)c2O1` [Compound 5, (2E)-1-(5,7-dihydroxy-2,2-dimethyl-2H-benzopyran-8-yl)-3-phenyl-2-propen-1-one]: the IC50 was 19.3 ± 1.4 µM.

These data come from publication PMC4749519, “Isoprenylated Flavonoids with PTP1B Inhibition from Macaranga denticulata” (Natural Products and Bioprospecting, 2016).
